In US20230116114A1, “COMPOUNDS AND COMPOSITIONS FOR TREATING CNS DISORDERS” (Blue Oak Pharmaceuticals, Inc., priority 2020, published 2023):
Where a name gives a salt, the structure may show the parent alone.

Tested on: mice
Experiment: SmartCube in vivo neuropharmacological behavioral assay
Conditions: for minimal effective dose: Mus musculus, ip, 0.25 h, dose having 50% or more total activity in SmartCube, i.p., read-out: MED (minimal effective dose); for AD: antidepressant (percent probability) / AG: analgesic (percent probability) / AP: antipsychotic (percent probability) / AX: anxiolytic (percent probability) / CE: cognitive enhancer (percent probability) / HA: hallucinogenic (percent probability) / MS: mood stabilizer (percent probability) / PS (percent probability) / SD: sedative hypnotic (percent probability) / SE: side effects (percent probability) / UN: uncharacterized CNS activity (percent probability) / XG: anxiogenic (percent probability): SmartCube, i.p. 15 min before test, result at the MED
Description: The compounds were evaluated for their CNS related properties (e.g., the treatment, prevention or diagnosis of CNS or CNS-related disorders and/or amelioration of symptoms) using neuropharmacological screening methods described in S. L. Roberts et al., Front. Neurosci. 2011, 5:103 (hereinafter referred to as “Roberts,” the contents of which are incorporated herein by reference in their entirety).
According to Roberts, intact systems are useful in detecting improvement in disease-relevant endpoints, because psychiatric diseases generally result from disorders of cell-cell communication or circuitry. The endpoints are typically behavioral in nature, often requiring human observation and interpretation. In order to test multiple compounds for behavioral effects relevant to neurological and psychiatric diseases and disorders, PsychoGenics, Inc. (Paramus, N.J. “PGI”) developed SmartCube®, an automated system in which behaviors of compound-treated mice are captured by digital video and analyzed with computer algorithms to facilitate testing of multiple compounds for behavioral effects relevant to psychiatric disease. (D. Brunner et al., Drug Discov. Today 2002, 7:S107-S112; Alexandrov et al., Eur. J. Pharmacol. 2015, 753:127-134; the contents of each of which are incorporated herein by reference in their entirety).
The SmartCube® system is described in Example 2.2 of U.S. Pat. No. 9,758,529 and Example 289 of WIPO Publication No. WO2018/023070, the contents of each of which are incorporated herein by reference in their entirety.
According to the present disclosure, compounds identified may be evaluated using the SmartCube® system. The results of such analysis correlate certain patterns or combinations of behaviors to CNS effects along a percent probability scale of 0-100 where zero (0) reflects the limit of quantitation (LOQ).
The compounds of the present disclosure were evaluated for their CNS related properties (e.g., the treatment, prevention or diagnosis of CNS or CNS-related disorders and/or amelioration of symptoms) using neuropharmacological screening methods described in S. L. Roberts et al., Front. Neurosci. 2011, 5:103 (hereinafter referred to as “Roberts,” the contents of which are incorporated herein by reference in their entirety).
The SmartCube® system described herein was utilized to compare the behavioral signature of a test compound to a database of behavioral signatures obtained using a large set of diverse reference compounds (including but not limited to antipsychotics, anxiolytics, antidepressants and bipolar disorder medicine), thereby predicting the neuropharmacological effects of a test compound by similarity to major classes of compounds. It produces an activity signature indicating the probability that the activity of the test compound at the administered dose matches a given class of neuropharmacological agents. The test compound is simultaneously compared against multiple classes of agents; thus, a separate probability is generated for each behavioral effect measured (such as but not limited to anxiolytic activity and analgesic activity).
The compounds of the present disclosure were dissolved in a mixture of Pharmasolve™ (N-methyl-2-pyrrolidone (NMP)) and were injected i.p. 15 min. before the behavioral test. For each compound, injections were administered at different dose levels (e.g., 0.3, 1, 3, 10 and 30 mg per kg (mpk)). A compound's minimal effective dose (MED; see Table 3) is a measure of the compound's potency. The MED was defined as the dose (in mpk) having 50% or more total activity in SmartCube®. For each behavioral effect measured, results at the MED are presented. CNS activities of the compounds were recorded (see Table 2). In Table 1, a key to the percent probabilities (probability ×100) for each behavioral effect (“X”) are defined provided, where LOQ is the limit of quantification.

Row | Compound | minimal effective dose [mg/kg] | AD: antidepressant (percent probability) | AG: analgesic (percent probability) | AP: antipsychotic (percent probability) | AX: anxiolytic (percent probability) | CE: cognitive enhancer (percent probability) | HA: hallucinogenic (percent probability) | MS: mood stabilizer (percent probability) | PS (percent probability) | SD: sedative hypnotic (percent probability) | SE: side effects (percent probability) | UN: uncharacterized CNS activity (percent probability) | XG: anxiogenic (percent probability)
1 | c1ccc2c(c1)C1CCCC2N1C1CCCC1 [Compound 4, 12-Cyclopentyl-12-azatricyclo[6.3.1.0^2,7]dodeca-2,4,6-triene hydrochloride] | 1 to 10 | +++ (25% ≤ X < 50%) | ++ (5% ≤ X < 25%) | + (LOQ ≤ X < 5%) | ++ (5% ≤ X < 25%) | + (LOQ ≤ X < 5%) | + (LOQ ≤ X < 5%) | + (LOQ ≤ X < 5%) | ++ (5% ≤ X < 25%) | + (LOQ ≤ X < 5%) | + (LOQ ≤ X < 5%) | + (LOQ ≤ X < 5%) | + (LOQ ≤ X < 5%)
2 | c1ccc(CCN2C3CCCC2c2ccccc23)cc1 [Compound 5, 12-(2-Phenylethyl)-12-azatricyclo[6.3.1.0^2,7]dodeca-2,4,6-triene] | 10 to 30 | ++ (5% ≤ X < 25%) | + (LOQ ≤ X < 5%) | ++ (5% ≤ X < 25%) | ++ (5% ≤ X < 25%) | + (LOQ ≤ X < 5%) | + (LOQ ≤ X < 5%) | + (LOQ ≤ X < 5%) | + (LOQ ≤ X < 5%) | + (LOQ ≤ X < 5%) | + (LOQ ≤ X < 5%) | +++ (25% ≤ X < 50%) | + (LOQ ≤ X < 5%)
3 | CCN1C2CCCC1c1ccccc12 [Compound 6, 12-Ethyl-12-azatricyclo[6.3.1.0,]dodeca-2,4,6-triene hydrochloride] | 10 to 30 | +++ (25% ≤ X < 50%) | ++ (5% ≤ X < 25%) | + (LOQ ≤ X < 5%) | ++ (5% ≤ X < 25%) | + (LOQ ≤ X < 5%) | + (LOQ ≤ X < 5%) | + (LOQ ≤ X < 5%) | + (LOQ ≤ X < 5%) | + (LOQ ≤ X < 5%) | + (LOQ ≤ X < 5%) | + (LOQ ≤ X < 5%) | + (LOQ ≤ X < 5%)
4 | CCCN1C2CCCC1c1ccccc12 [Compound 7, 12-Propyl-12-azatricyclo[6.3.1.0^2,7]dodeca-2,4,6-triene hydrochloride] | 10 to 30 | ++ (5% ≤ X < 25%) | +++ (25% ≤ X < 50%) | + (LOQ ≤ X < 5%) | ++ (5% ≤ X < 25%) | + (LOQ ≤ X < 5%) | + (LOQ ≤ X < 5%) | + (LOQ ≤ X < 5%) | ++ (5% ≤ X < 25%) | + (LOQ ≤ X < 5%) | + (LOQ ≤ X < 5%) | + (LOQ ≤ X < 5%) | + (LOQ ≤ X < 5%)
5 | CC(C)CN1C2CCCC1c1ccccc12 [Compound 8, 12-(2-Methylpropyl)-12-azatricyclo[6.3.1.0^2,7]dodeca-2,4,6-triene] | 10 to 30 | ++++ (50% ≤ X < 100%) | + (LOQ ≤ X < 5%) | + (LOQ ≤ X < 5%) | ++ (5% ≤ X < 25%) | + (LOQ ≤ X < 5%) | + (LOQ ≤ X < 5%) | + (LOQ ≤ X < 5%) | ++ (5% ≤ X < 25%) | + (LOQ ≤ X < 5%) | + (LOQ ≤ X < 5%) | + (LOQ ≤ X < 5%) | + (LOQ ≤ X < 5%)
6 | c1ccc2c(c1)C1CCCC2N1C1CCOC1 (centres unmarked) [Compound 9, 12-(Oxolan-3-yl)-12-azatricyclo[6.3.1.0^2,7]dodeca-2,4,6-triene hydrochloride] | 10 to 30 | +++ (25% ≤ X < 50%) | ++ (5% ≤ X < 25%) | + (LOQ ≤ X < 5%) | ++ (5% ≤ X < 25%) | + (LOQ ≤ X < 5%) | + (LOQ ≤ X < 5%) | + (LOQ ≤ X < 5%) | + (LOQ ≤ X < 5%) | + (LOQ ≤ X < 5%) | + (LOQ ≤ X < 5%) | ++ (5% ≤ X < 25%) | ++ (5% ≤ X < 25%)
7 | c1ccc2c(c1)C1CCCC2N1C1CCC1 [Compound 10, 12-Cyclobutyl-12-azatricyclo[6.3.1.0^2,7]dodeca-2,4,6-triene hydrochloride] | 1 to 10 | ++++ (50% ≤ X < 100%) | ++ (5% ≤ X < 25%) | + (LOQ ≤ X < 5%) | ++ (5% ≤ X < 25%) | + (LOQ ≤ X < 5%) | ++ (5% ≤ X < 25%) | + (LOQ ≤ X < 5%) | ++ (5% ≤ X < 25%) | + (LOQ ≤ X < 5%) | + (LOQ ≤ X < 5%) | + (LOQ ≤ X < 5%) | + (LOQ ≤ X < 5%)
8 | c1ccc2c(c1)CC(N1C3CCCC1c1ccccc13)C2 [Compound 11, 12-(2,3-Dihydro-1H-inden-2-yl)-12-azatricyclo[6.3.1.0^2,7]dodeca-2,4,6-triene hydrochloride] | 10 to 30 | + (LOQ ≤ X < 5%) | ++ (5% ≤ X < 25%) | + (LOQ ≤ X < 5%) | ++ (5% ≤ X < 25%) | ++ (5% ≤ X < 25%) | + (LOQ ≤ X < 5%) | + (LOQ ≤ X < 5%) | + (LOQ ≤ X < 5%) | + (LOQ ≤ X < 5%) | + (LOQ ≤ X < 5%) | +++ (25% ≤ X < 50%) | + (LOQ ≤ X < 5%)
